Data set [1] is described as follows: Countercurrent distribution, KrKb (partition coefficient x dissociation constant). Type of data set: physicochemical. The method, then: The diverse tertiary alkaloids contained in the basic extract of Example 1, were separated by countercurrent distribution, with dichloromethane as the stationary phase and an aqueous buffer with an incrementally decreasing pH (mobile phase). The alkaloids were recovered from the aqueous phase by extraction with dichloromethane.
The equipment used was a Craig type Post apparatus made up of 200 glass tubes (with 10 ml volumes for the lower phase and 10 ml volumes for the upper phase).

The test system of data set [2] is Plasmodium falciparum Strain D6. The data set is described as follows: In vitro antiplasmodial activity (IC50), strain D6. In kind it is cell-based. The protocol: (§1) The basic extracts obtained as in Example 1, from both the root and stem bark with a yield of 1.9% were used to carry out the in vitro antiplasmodial activity study on known Plasmodium falciparum strains.
(§2) Plasmodium falciparum strains D6 and W2 were used throughout this investigation. Laboratory isolates of P. falciparum were grown under controlled conditions in culture medium containing leukocyte-free red blood cells (RBCs) at 5% hematocrit (Tager and Jensen, 1976). Briefly, parasites were allowed to infect RBCs in a media consisting of RPMI 1640 plus 25 mM Hepes, 0.25 glucose, 0.2% sodium bicarbonate, 0.5% Albumax II, and 50 mg/liter hypoxanthine and grown in 5% CO2 at 37° C. […]
(§3) Assessment of parasite development and morphology. Parasite development and morphology were evaluated by microscopic examination of Giemsa-stained thin blood smears at 24, 48, and 72 hour intervals in the presence of increasing doses of the alkaloids dissolved as a stock solution in 10% (v/v) dimethylsulphoxide (DMSO) in RPMI 1640. […] Smears from drug-free cultures were always used as controls Parasitemia was measured by counting blood cells and expressed as percentage of total parasitized erythrocytes (Table 3).

The subject of data set [3] is Leishmania infantum promastigotes. The data set is described as follows: In vitro leishmanicidal activity, MTT assay. The note with it: for Fold Increase (IC50), voacamine with respect to the basic extract: ratio of IC50. Type of data set: cell-based. The method, then: Preparation of the anti-leishmanial compositions: The total plant extract was dissolved in DMSO as a 50 mg/mL stock. The purified alkaloid, voacamine, was dissolved in 50% DMSO at a 3 mg/mL stock.
In vitro drug testing. […] 10 μL of 3-(4,5-dimethylthiazol-2-yl)-2,5-diphenyl-2H-tetrazol bromide (MTT, Sigma, 5 mg/mL in PBS) were added to each well and plates were incubated for an additional period of 5 hours. Only viable cells are able to reduce the MTT compound to produce water-insoluble formazan crystals of a purple color. These crystals were dissolved by adding 100 μL of SDS 20% and incubating overnight at 37° C. The absorbance was subsequently read at 540 nanometers using a microplate reader (Beckman Biomek 2000). Cell survival was determined by dividing the absorbance of the compound at a given concentration by the absorbance of control cells grown in the absence of drug. The 50% inhibitory concentration (IC50) values were graphically determined after plotting the percentage of growth as a function of drug concentration. All experiments were performed in duplicate.

Data set [4] relates to Plasmodium falciparum Strain W2. The data set is described as follows: In vitro antiplasmodial activity (IC50), strain W2. In kind it is cell-based. The protocol: as §1, §2, §3

Converted amounts (≈) assume the structure as drawn.

On to `C/C=C1/CN2[C@H]3Cc4c(n(C)c5ccccc45)[C@@H]2C[C@@H]1[C@@]3(CO)C(=O)OC` [voachalotine], for which the “KrKb (Kr partition coefficient aqueous phase/organic phase, Kb dissociation constant)” value in data set [1] is recorded as 2×10^−11.
With `C/C=C1/CN2[C@H]3C[C@@H]1[C@@H](CO)[C@@H]2Cc1c3n(C)c2ccccc12` [affinisine], the “KrKb (Kr partition coefficient aqueous phase/organic phase, Kb dissociation constant)” value in data set [1] is recorded as 7×10^−10.
The same measure, in the same setting: the same measure for N-demethylvoacamine: 3.5×10^−11.
The same measure, in the same setting: the same measure for `CC=C1CN(C)C2Cc3c([nH]c4ccccc34)C(=O)CC1C2CO` (stereo not drawn) [16-epi-affinine]: 2.5×10^−9.
In the case of `CC=C1CN(C)C2Cc3c([nH]c4ccccc34)C(c3cc4[nH]c5c(c4cc3OC)CCN3CC4CC(CC)C3C5(C(=O)OC)C4)CC1C2C(=O)OC` (stereo not drawn) [Ex. 2, voacamine], the IC50 was 0.238 µg/mL (≈ 0.338 µM) in data set [2]; 3.3 µg/mL (≈ 4.68 µM) in data set [3] (Leishmania infantum, 72 h, read-out: IC50 (concentration required to kill 50% of the parasites)); 0.29 µg/mL (≈ 0.411 µM) in data set [4]. The 90% effect level in data set [3] (Leishmania infantum, 72 h) (IC90) was put at 7 µg/mL (≈ 9.93 µM). The “concentration producing complete cellular destruction” value in data set [3] (before 72 hours) is 10 µg/mL. For the same molecule, the “Fold Increase (IC50), voacamine with respect to the basic extract” value stood at 20.7 fold in data set [3] (listed as Voacamine) and 20 fold in data set [3] (listed as voacamine). In addition, in data set [3] (ratio of IC90), the “Fold Increase (IC90), voacamine with respect to the basic extract” value is given as 15.7 fold.

For the origin of these results see patent US20070232588A1, “Anti-parasitic and/or anti-viral and/or anti-microbial compositions” (priority 2004, published 2007).
